Experiment: refractive index (Na D-line) (dimensionless); wn = mass fraction of the nth substance listed
Details: 101.3 kPa, Liquid, Standard Abbe refractometry

N#C[S-].[K+] [potassium thiocyanate] + O
refractive index
Details	293 K	298 K	303 K	308 K	313 K
w1 = 0.218	1.3754	1.37475	1.37415	1.3731	1.3728
w1 = 0.244	1.38075	1.3802	1.3796	1.37855	1.3779
w1 = 0.265	1.38565	1.3852	1.3844	1.383	1.38205
w1 = 0.291	1.39085	1.3906	1.3896	1.38835	1.3876
w1 = 0.321	1.39825	1.39675	1.396	1.3949	1.39375
w1 = 0.359	1.4061	1.4054	1.4046	1.4033	1.40235
w1 = 0.381	1.41155	1.4105	1.4097	1.4079	1.40725
w1 = 0.406	1.41705	1.41615	1.4147	1.4139	1.41305
w1 = 0.42	1.41995	1.41945	1.4183	1.41675	1.41585
w1 = 0.435	1.42345	1.423	1.422	1.4199	1.41875
w1 = 0.451	1.42755	1.42705	1.42585	1.4241	1.4229
w1 = 0.468	1.43175	1.43085	1.4295	1.4281	1.4272
w1 = 0.477	1.43375	1.433	1.4319	1.43035	1.4294
w1 = 0.487	1.4358	1.4352	1.4344	1.43245	1.4315
w1 = 0.497	1.43825	1.43755	1.43665	1.4347	1.43375
w1 = 0.507	1.441	1.44045	1.43855	1.43715	1.4362
w1 = 0.518	1.4437	1.443	1.44095	1.4393	1.4385
w1 = 0.529	1.4465	1.44635	1.44455	1.4423	1.44175
w1 = 0.54	1.4493	1.44905	1.44675	1.4451	1.44415
w1 = 0.553	1.4521	1.45205	1.4499	1.4473	1.44725
w1 = 0.565	1.45545	1.45505	1.4534	1.45115	1.45065
w1 = 0.579	1.45915	1.4587	1.4569	1.45455	1.4536
w1 = 0.584	1.46045	1.46015	1.4584	1.4559	1.4554
w1 = 0.59	1.46215	1.4614	1.4599	1.4579	1.45645
w1 = 0.595	1.4635	1.46305	1.46155	1.4595	1.4587
w1 = 0.601	1.46515	1.46505	1.4633	1.46085	1.4596
w1 = 0.607	1.4672	1.46635	1.465	1.46265	1.462
w1 = 0.613	1.4681	1.46775	1.4663	1.46415	1.46305
w1 = 0.62	1.4694	1.4693	1.4682	1.46645	1.46495
w1 = 0.626	1.47155	1.47145	1.46985	1.46845	1.46715
w1 = 0.632	1.4733	1.47285	1.4721	1.4698	1.4689
w1 = 0.639	1.47505	1.4747	1.47385	1.47195	1.4704
w1 = 0.646	1.4771	1.47675	1.4757	1.47355	1.4724
w1 = 0.652	1.478	1.47805	1.4773	1.4761	1.4745
w1 = 0.659	1.4809	1.4805	1.4795	1.4784	1.47655
w1 = 0.667	1.48275	1.4826	1.4813	1.48045	1.47875
w1 = 0.674	1.48485	1.4846	1.4835	1.48215	1.48105
w1 = 0.681	1.4875	1.48685	1.48595	1.48455	1.483
w1 = 0.689	1.4891	1.4885	1.4876	1.4865	1.4855
w1 = 0.697	1.49135	1.4907	1.4896	1.4884	1.4871
w1 = 0.705	1.49315	1.4922	1.49135	1.49005	1.48924
